Assays:
[1] = test system: B16 melanoma, UV induced squamous carcinoma and Lewis lung carcinoma; conditions: 18 μg, 3 topical treatments (Ogbourne, 2004); cited from earlier work
skin = conditions: cited from earlier work
AE17 mesothelioma = test: Topical treatment of subcutaneous murine AE17 mesothelioma tumours, tumour area by micro-callipers; format: in vivo, C57BL/6J mice; conditions: 50 ul topically; 4% terpinen-4-ol, 2% γ-terpinene, 1% α-terpinene, 0.5% 1,8-cineole, 0.5% p-cymene; vs untreated controls
Source text: The models used, murine AE17 mesothelioma and murine B16 melanoma tumour, both involve the implantation of tumour cell lines subcutaneously onto the rear flank of fully immuno-competent mice. Palpable tumours arise within 3-14 days.
Female fully immuno-competent C57BL/6J mice between 6-8 weeks of ages are obtained from the Animal Resources Centre (Perth, Australia) and maintained under SPF (specified pathogen free) housing conditions (Animal Care Unit, University of Western Australia).
AE17 cells were derived from the peritoneal cavity of C57BL/6J mice injected with asbestos fibres (Jackaman, 2003) and (Davis, 1992) and are injected subcutaneously at a concentration of 1×10^7 per mouse (Needham, 2006). […]

| Structure (SMILES) | tumour regression [1] | skin reaction on topical application (skin) | AE17 tumour growth, components applied singly with DMSO (AE17 mesothelioma) |
| --- | --- | --- | --- |
| C/C=C(/C)C(=O)O[C@H]1C(C)=C[C@]23C(=O)[C@@H](C=C(CO)[C@@H](O)[C@]12O)[C@H]1[C@@H](C[C@H]3C)C1(C)C [3-Ingenyl-Angelate] | induces tumour regression with just 3 topical treatments | elicits skin irritation | – |
| CC1=CCC(O)(C(C)C)CC1 (centres unmarked) [terpinen-4-ol] | – | – | lack of efficacy |
| CC12CCC(CC1)C(C)(C)O2 [1,8-cineole] | – | – | lack of efficacy |
| CC(C)Cn1cnc2c(N)nc3ccccc3c21 [Imiquimod] | – | redness, drying and scabbing | – |
| CC1=CC=C(C(C)C)CC1 [α-terpinene] | – | – | lack of efficacy |
| CC1=CCC(C(C)C)=CC1 [γ-terpinene] | – | – | lack of efficacy |
| Cc1ccc(C(C)C)cc1 [p-cymene] | – | – | lack of efficacy |

— patent US20110293757A1, “Compositions Comprising Tea Tree Oil and Methods for the Prevention and Treatment of Cancer” (priority 2008, published 2011)
